# Key:
# [1] = system: HIV-1 NL4-3 in U87-CD4/CXCR4 cells; experiment: Viral replication assay, p24 read-out; format: cell-based; details: 10 µM, infection over several days, NL4-3 in U87-CD4/CXCR4 cells (Fig. 1A)
# HIV-1 RRE IIB RNA [2] = details: native Rev protein with RRE; ref [26], [58]; cited from earlier work
# HIV-1 RRE IIB RNA [3] = experiment: Dot blot assay, binding to RRE IIB RNA; details: dot blot Kd relative to BPBA3
Molecule,"HIV-1 replication screening, p24 expression [1]",also measured
Raltegravir,completely abolished p24 expression,
Rev protein: native HIV-1 Rev protein that binds RRE,,dissociation constant with RRE (HIV-1 RRE IIB RNA [2]): low nanomolar range
"Nc1ccn([C@@H]2CS[C@H](CO)O2)c(=O)n1 [3TC, 2′,3′-dideoxy-3′-thiacytidine]",completely abolished p24 expression,
FBPAYFBPAFBPAYFBPA*NKSY [LBPBA3B],,loss in binding affinity towards RRE IIB versus BPBA3 (HIV-1 RRE IIB RNA [3]): 3 fold
Elvitegravir,completely abolished p24 expression,
"Cc1cn([C@H]2C[C@H](N=[N+]=[N-])[C@@H](CO)O2)c(=O)[nH]c1=O [AZT, azidothymidine]",completely abolished p24 expression,
FBPAYFBPA*NKSY [LBPBA3A],,loss in binding affinity towards RRE IIB versus BPBA3 (HIV-1 RRE IIB RNA [3]): 2 fold
